Laboratory results published in patent US20210220333A1, “COMPOSITIONS AND METHODS FOR PREVENTING AND/OR TREATING FILARIAL DISEASE” (priority 2018, published 2021).
Where “and” joins values, the source holds several entries; their conditions need not be identical. Identical values can stand only once. Like-named read-outs stand apart in the source and are kept apart here.

Key:
[1] = tested on: adult B. malayi female worms; assay: Adult female B. malayi incubation with UGT inhibitor in combination with albendazole, worm motility; assay type: cell-based, Brugia malayi; conditions: 8 days
Experimental: (§1) Worm motility: Worms were visualized with a dissecting microscope by an observer blinded to treatment category. Motility of the adult female B. malayi worms was rated based on the following scale: 4=active movement, 3=modest reduction in movement, 2=severe reduction in movement, 1=twitching, and 0=no movement.
For the probenecid samples, adult female worms were incubated in culture media with the drug for 8 days at concentration of 100 μM alone or in combination with 10 μM of albendazole. Worms were transferred into new media with corresponding drug concentrations every other day. As a negative control, worms were incubated in culture media alone. Worm motility was scored using a previously established scale as described in Example 3 for the course of the experiment.

B. malayi microfilariae = B. malayi microfilariae incubation with UGT inhibitors (microfilaricidal activity in vitro); assay type: cell-based, Brugia malayi; conditions: 500 μM
Experimental: B. malayi microfilariae incubation with UGT inhibitors: The above UGT inhibitors were evaluated for microfilaricidal activity in vitro. For each drug, experiments were performed in triplicate at a concentration of 2×10^4 Mf/mL in culture media. Viability was determined by quantifying the number of motile larvae from 100 randomly selected microfilariae per well. […] As a negative control, larvae were incubated in culture media alone. The UGT inhibitor experiments were repeated two times under similar conditions.

[2] = cited from earlier work
[3] = UGT inhibitor LDH cytotoxicity assay; assay type: cell-based; conditions: human
Experimental: UGT Inhibitor Cytotoxicity Assay: Cytotoxicity of the UGT inhibitors was measured using a Pierce LDH Cytotoxicity Assay Kit (Thermo Fisher Scientific, Carlsbad, Calif., US). HEK cells were seeded at 5×10^4 per well in DMEM (Quality Biological, Gaithersburg, Md., US) with 10% Hyclone Cosmic Calf Serum (Thermo Fisher Scientific, Carlsbad, Calif., US), 200 μM of L-glutamine (Quality Biological, Gaithersburg, Md., US), and 50 μg/mL of gentamicin (Quality Biological, Gaithersburg, Md., US) at 37° C. in 5% CO2. The cells were then incubated with various concentrations of the UGT inhibitors overnight. Following this, 50 μL of media was transferred from each well to a new 96-well plate and then added 50 μL of reaction buffer. The mixture was incubated for 30 minutes and then added 50 μL of stop solution. Absorbance was measured at 490 nm and 680 nm. The following controls were included in the experiment: a spontaneous lactate dehydrogenase (LDH) activity control that was incubated with the vehicle only and a maximum LDH activity control that was incubated with nothing but later lysed prior to incubation with the reaction buffer. Absorbance was calculated for each well by subtracting the 680 nm absorbance value (background) from the 490 nm absorbance value. Percent cytotoxicity was calculated using the following equation (Formula 1): [formula]

[4] = tested on: adult B. malayi female worms; assay: Adult B. malayi worm incubation with UGT inhibitors, worm motility score (macrofilaricidal activity in vitro); assay type: cell-based, Brugia malayi; conditions: for Lowest effective concentration (lowest concentration with significant effect on motility): adult worms in vitro
Experimental: For the siRNA experiments, data was analyzed using one-way analysis of variance (ANOVA) or T-test by PRISM 7.0 (GraphPad Software, La Jolla, Calif., US). Following ANOVA, individual comparisons of mean values were performed using Tukey's multiple comparisons test. For the UGT inhibitor experiments, area under curve (AUC) analysis was performed followed by one-way ANOVA to determine significance. Statistical significance between the experimental and control groups was designated as follows: * for p values<0.05, ** for p values<0.01, and *** for p values<0.001.
as §1
For probenecid, adult female worms were incubated in culture media with the drug for 7 days at concentrations of 5000 μM, 500 μM, 250 μM, and 100 μM. Worms were transferred into new media with corresponding drug concentrations every other day. As a negative control, worms were incubated in culture media alone. Worm motility was scored using the previously mentioned scale described in Example 3 for the course of the experiment.

Row | SMILES | Adult worm motility, area under the curve (AUC) ([1]; 10 μM albendazole alone) | Macrofilaricidal activity compared to media alone ([1]; 10 μM alone) | Microfilaricidal effect (B. malayi microfilariae) | Adverse events in humans ([2]; single 2 g oral dose) | Peak concentration in humans ([2]; single 2 g oral dose) | cytotoxicity at 100 µM [3] [%] | cytotoxicity at 250 µM [3] [%] | cytotoxicity at 500 µM [3] [%] | cytotoxicity at 5000 µM [3] [%] | Macrofilaricidal activity in vitro ([4]; 500 μM) | Adult worm motility, area under the curve (AUC) ([4]; 5000 μM, 7 days, media control AUC 24.18) | Macrofilaricidal activity in vitro ([4]; adult worms) | Lowest effective concentration (lowest concentration with significant effect on motility) [4] [µM] | Cmax ([2]; 400 mg dose, read-out: Maximum concentration (Cmax) in humans) [µM] | cytotoxicity at 40 µM ([3]; HEK cells, 40 μM, overnight, LDH) [%] | cytotoxicity at 100 µM ([3]; HEK cells, 100 μM, overnight, LDH, read-out: % Cytotoxicity) [%] | cytotoxicity at 200 µM ([3]; HEK cells, 200 μM, overnight, LDH) [%] | cytotoxicity at 2000 µM ([3]; HEK cells, 2000 μM, overnight, LDH) [%]
1 | CCCSc1ccc2nc(NC(=O)OC)[nH]c2c1 [albendazole] | 29.63 | Limited macrofilaricidal activity | – | – | – | – | – | – | – | – | – | – | – | – | – | – | – | –
2 | CCCN(CCC)S(=O)(=O)c1ccc(C(=O)O)cc1 [probenecid, p-(di-n-propylsulphamyl)-benzoic acid] | – | – | no clear microfilaricidal effect | minimal adverse events | 148.6 μg/mL and 520.7 μM | -2.69 | -0.67 | -1.34 | -2.49 | robust macrofilaricidal activity | 8.1 | exhibited macrofilaricidal activity in vitro | 500 | – | – | – | – | –
3 | O=C1C(CC[S+]([O-])c2ccccc2)C(=O)N(c2ccccc2)N1c1ccccc1 (stereo not shown) [sulfinpyrazone] | – | – | – | – | – | – | – | – | – | – | – | – | 200 | 79.9 | -4.03 | -4.46 | -5.35 | -4.14
